Read-outs that look alike come from different tables or passages of the source. Where a SMILES comes first, the peptide text is derived from it. [ ]: non-standard residue; d: D form. The star is where a group is joined. Stearoyl = CCCCCCCCCCCCCCCCCC(=O)*
How the values were obtained:
rat plasma = test: TT, PT and APTT of rat blood after administration; type: in vivo
Description: Forty-eight male SD rats (180 ~ 220 g) were randomly divided into six groups (n = 8) and anesthetized by i.p.20% ethyl urethane (1 g·kg^−1). […] Blood samples were obtained from the abdominal aorta, and then mixed with 3.8% sodium citrate solution in a ratio of 9:1 (v/v). The resulting samples were centrifuged at 3000 rpm for 15 min at 18 °C. TT, PT and APTT were determined according to the kit protocol (Sunbio Ltd., Shanghai) on a C2000 coagulometer (Precil, Beijing).

[1] = test system: rat carotid artery thrombosis; test: Rat carotid artery thrombosis (occlusion time); type: in vivo; conditions: for occlusion time (OT): 30 min after administration
Excerpt: The carotid artery thrombosis in rats was induced by the method developed by Hladovec with minor modifications. At first, male SD Rats (180 ~ 220 g) were randomly divided into 5 groups (n = 8) and anesthetized by i.p. 20% ethyl urethane (1 g/kg). The right carotid artery was first carefully separated to give a 1.5 cm long open access, and then the stimulating electrode and the temperature electrode of BT 87–3 thrombosis radiometer (Baotou medical college, China) were linked to both ends of the artery. […] The time from the initiation of electric stimulation to the sudden drop of carotid temperature was recorded as occlusion time (OT), or thrombus formation time.

[2] = Pharmacokinetics in rats, i.v.; type: in vivo; conditions: rat
Description: SD Rats were randomly divided into three groups (n = 5). […] All blood samples were immediately centrifuged at 5000 rpm for 5 min at room temperature, and the plasma obtained was stored at −20 °C before analysis. To the rat plasma (100 μL) was added 10 μL internal standard (80 ~ 100 ng/ml Carbamazepine), followed by mixing with 200 μL methanol with vortexing for 1 min. At this stage, certain amounts of proteins may precipitate out, thus this mixture was centrifuged at 12,000 rpm for 5 min at room temperature to achieve complete separation. The 20 μl supernatant was injected into a HPLC (Symbiosis, Spark, Holland; column: 50 mm × 2.1 mm, 5 μm, Agilent Eclipse Plus) –MS/MS system (ABI 4000 Q-Trap triple quadrupole mass spectrometer) equipped with electrospray ionization (ESI) source in the positive ion mode (Foster City, USA). The HPLC elution gradient was as follows: 0–0.5 min, 5–5% (B); 0.5–3 min, 5–95% (B); 3–4 min, 95–95% (B); 4–4.06 min, 95–5% (B); 4.06–6 min, 5–5% (B); the flow-rate was 0.4 ml/min; A was 0.1% formic acid/Waterl, B was 0.1% formic acid/methanol. The MS parameters were: CUR10Psi; Ion Spray Voltage (IS) 5500v; Collision activated dissociation (CAD) High, Gas1 = 50 psi, Gas2 = 50 psi, TEM = 500 °C.
All three peptides remained stable in plasma during three freeze/thaw cycles, at room temperature for at least 2 h. The supernatant of plasma samples were also found to be stable for at least 24 h at 10 °C in the autosampler.
The statistical significance of the difference among pharmacokinetic parameters was determined using the mean comparison Student’s t-test, and the resulting P values were lower than 0.05, which is considered to be statistically significant.

human thrombin = target: T1, human thrombin (Homo sapiens, UniProt P00734); test: Degradation mediated by human thrombin (HPLC); type: in vitro ADME; conditions: human thrombin (69 NIH/mL) in Tris-HCl buffer, pH 8, 69 NIH/ml human thrombin, peptide 0.41 mM, 37 °C, read-out: peptide remained after reaction with human thrombin
T1 construct: purchased National Institute for the Control of Pharmaceutical and Biological Products (Beijing, China)
Description: The catalytic cleavage of peptides mediated by thrombin was also examined using the same method. Specifically, a peptide solution (0.41 mM) was first incubated with thrombin (69 NIH/mL) in Tris-HCl buffer (70 mM Tris HCl, NaCl 50 mM, pH = 8.0) at 37 °C.

[3] = SD, plasma, iv, 1 umol/kg, 1 μmol/kg i.v., n = 5

CCCCCCCCCCCCCCCCCC(=O)NCCCC[C@H](NC(=O)CNC(=O)[C@@H]1CCCN1C(=O)[C@H](CCCNC(=N)N)NC(=O)[C@@H]1CCCN1C(=O)[C@H](N)Cc1ccccc1)C(=O)NCC(=O)NCC(=O)N[C@@H](CCC(N)=O)C(=O)NCC(=O)N[C@@H](CC(=O)O)C(=O)N[C@@H](Cc1ccccc1)C(=O)N[C@@H](CCC(=O)O)C(=O)N1CCC[C@H]1C(=O)N[C@H](C(=O)N1CCC[C@H]1C(=O)N[C@@H](CCC(=O)O)C(=O)N[C@@H](CC(=O)O)C(=O)N[C@@H](C)C(=O)N[C@@H](Cc1ccc(O)cc1)C(=O)N[C@@H](CC(=O)O)C(=O)N[C@@H](CCC(=O)O)C(N)=O)[C@@H](C)CC [Peptide S2] (H-[dF]PRPGK(Stearoyl)GGQGDFEPIPEDAYDE-NH2; N-terminus assumed)
antithrombotic activity (TT, PT, APTT) compared with references (rat plasma; 0.5 mg/kg peptide S2, 30 min after administration): superior to the 8 mg/kg hirulog-1 and 200 IU/kg heparin
TT, PT and APTT of rat blood (rat plasma; 30 min after administration, sublingual vein): significantly elevate
occlusion time (OT) ([1]; 0.5 mg/kg): 979.88 ± 150.61 s
occlusion time (OT) ([1]; 1.0 mg/kg): 1063.75 ± 61.12 s
duration of antithrombotic activity (OT) ([1]; 1.0 mg/kg, OT at different time points): more than 8 h
occlusion time (OT) ([1]; 2.0 mg/kg): 1207.25 ± 137.82
AUC(0-inf) [2, 3]: 26.5 µM·h
Cmax [2, 3]: 10.1 ± 1.1 µM
clearance [2, 3]: 0.7 ± 0.1 mL/min/kg
AUC(0-t) ([2]; SD, plasma, iv, 1 umol/kg, 1 μmol/kg i.v., n = 5, read-out: AUC(0-t) (converted)): 22.9 µM·h
Vd ([2]; SD, plasma, iv, 1 umol/kg, 1 μmol/kg i.v., n = 5, read-out: Vss): 0.146 ± 0.0155 L/kg
half-life [2, 3]: 3.54 ± 0.973 h
MRT last ([2]; in vivo, iv, 1 umol/kg, 1 μmol/kg i.v., n = 5, read-out: MRT0-t (converted)): 3.29 h
half-life, fold longer than hirulog-1 [2]: 13.1 fold
half-life, fold longer than peptide 1 [2]: 14.7 fold
AUC(0-t) ([2]; 1 μmol/kg i.v., n = 5): 22.862 ± 3.463 µM·h
AUC(0-∞) ([2]; 1 μmol/kg i.v., n = 5): 1590.6 ± 311.7 nmol·min/mL
remaining at 3 h, 0.41 mM (human thrombin; 3 h): 93%
remaining at 5 h, 0.41 mM (human thrombin; 5 h): 69%
